Source: patent US5710149A, “Piperazine derivatives as 5-ht antagonists” (John Wyeth & Brother, Ltd., priority 1991, dated 1998)

Tests used:
5-HT1A receptor [1] = target: T1, 5-HT1A receptor (Rattus norvegicus, UniProt P19327); assay: 5-HT1A receptor binding activity in rat hippocampal membrane homogenate
T1 construct: rat hippocampal membrane homogenated; from tissue; host or cells: rat hippocampus, membrane homogenate
T1 sequence (P19327 1-422): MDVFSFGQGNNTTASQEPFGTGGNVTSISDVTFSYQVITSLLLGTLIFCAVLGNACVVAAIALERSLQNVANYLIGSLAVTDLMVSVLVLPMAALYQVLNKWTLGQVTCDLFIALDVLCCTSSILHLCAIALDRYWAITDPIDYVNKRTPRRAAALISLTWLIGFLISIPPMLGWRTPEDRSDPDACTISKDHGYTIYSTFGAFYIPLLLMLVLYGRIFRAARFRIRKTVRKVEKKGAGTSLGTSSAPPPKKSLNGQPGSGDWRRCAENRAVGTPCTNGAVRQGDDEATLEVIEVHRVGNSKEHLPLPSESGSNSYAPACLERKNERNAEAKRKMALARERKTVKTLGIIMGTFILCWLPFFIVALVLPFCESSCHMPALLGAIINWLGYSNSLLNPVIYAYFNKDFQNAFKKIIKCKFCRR
Description: The compounds of the invention are tested for 5-HT1A receptor binding activity in rat hippocampal membrane homogenated by the method of B. S. Alexander and M. D. Wood, J Pharm Pharmacol, 1988, 40, 888-891.

5-HT1A receptor [2] = target: T2, 5-HT1A receptor (Cavia porcellus, UniProt A0A286Y074); assay: 5-HT1A receptor antagonism: antagonism of 5-carboxamido-tryptamine in the guinea-pig ileum in vitro; conditions: read-out: pA2, antagonism of 5-carboxamido-tryptamine (converted)
T2 construct: guinea-pig ileum in vitro; from tissue; host or cells: guinea-pig ileum, isolated tissue
T2 sequence (A0A286Y074 1-421): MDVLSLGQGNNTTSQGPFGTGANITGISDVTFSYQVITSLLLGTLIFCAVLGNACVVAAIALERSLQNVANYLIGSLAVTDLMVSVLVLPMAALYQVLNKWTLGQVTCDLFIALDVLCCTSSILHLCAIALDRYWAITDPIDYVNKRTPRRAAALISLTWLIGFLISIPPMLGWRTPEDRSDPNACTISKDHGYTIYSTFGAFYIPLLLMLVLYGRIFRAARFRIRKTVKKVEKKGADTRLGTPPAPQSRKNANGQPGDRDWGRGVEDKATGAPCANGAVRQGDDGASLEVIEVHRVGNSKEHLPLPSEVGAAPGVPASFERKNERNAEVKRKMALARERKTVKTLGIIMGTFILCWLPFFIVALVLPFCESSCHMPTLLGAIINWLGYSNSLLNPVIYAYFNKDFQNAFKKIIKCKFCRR
Description: The compounds are tested for 5-HT1A receptor antagonism activity in a test involving the antagonism of 5-carboxamido-tryptamine in the guinea-pig ileum in vitro (based upon the procedure of Fozard et al, Br. J. Pharmac., 1985, 86, 601P).

O=C(C(CCN1CCN(c2cccc3c2OCCO3)CC1)c1ccccc1)N1CCCCCC1 (centres unmarked) [Example 8, 2,3,4,5,6,7-Hexahydro-1-{4-[1-[4-(2,3-dihydro-1,4-benzodioxin-5-yl)piperazinyl]]-2-phenylbutyryl}-1H-azepine]
IC50 (5-HT1A receptor [1]): 0.6 nM | Kb (5-HT1A receptor [2]): 0.398 nM
